The record followed here is publication PMC12569736 (Journal of Cosmetic Dermatology, 2025).

Read-outs that look alike come from different tables or passages of the source.

The subject of series [1] is MNT‐1 cells. In words: Melanin content in MNT‐1 cells after 6 days of treatment. It counts as cell-based, human. On the procedure:
MNT‐1 cells were exposed to varying concentrations of test compounds for 6 days. After treatment, cells were harvested and lysed in RIPA buffer on ice for 20 min. Lysates were centrifuged at 13 000 rpm for 10 min at 4°C, and the supernatant was collected. Protein concentration was quantified using a BCA Protein Assay Kit (Thermo Fisher). To extract melanin, cell pellets were dissolved in 1 M NaOH and incubated for 3 h at 80°C. Absorbance at 405 nm was measured using a Synergy H1 Hybrid Reader. Melanin content was quantified by referencing a standard curve of synthetic melanin (maximum concentration 50 μg/mL, 2‐fold gradient dilution, 8 concentration points). Melanin content was normalized to protein concentration (μg melanin/mg protein), and IC50 values were calculated using GraphPad software.
FIGURE 3 Inhibition of melanin production in MNT‐1 by KT‐939, Thiamidol, and 4‐butylresorcinol. MNT‐1 cells were treated with different concentrations of KT‐939, Thiamidol, or 4‐butylresorcinol for 6 days. The melanin content was quantified based on the standard curve of melanin, and the melanin content per mg of protein was utilized for IC50 calculations with GraphPad software.

The test system of series [2] is MNT‐1 cells. As to the kind of experiment: Wash‐out assay, melanin content in MNT‐1 cells after drug withdrawal. The note with it: for inhibition at 1 µM / inhibition at 10 µM: Homo sapiens, read-out: melanin inhibition rate after washout; for inhibition at 1 µM: MNT-1, 1 μM for 6 days; for inhibition at 10 µM: MNT-1, 10 μM for 6 days. Type of series: cell-based, human. The procedure:
MNT‐1 cells were treated with 1 or 10 μM KT‐939 for six days, after which the drug‐containing medium was replaced with standard culture medium. Melanin content was measured at various time points.
FIGURE 4 The inhibitory effect of KT‐939 on melanin production is reversible. MNT‐1 cells were exposed to 1 or 10 μM of KT‐939 for 6 days, followed by drug washout and replacement with normal medium. Melanin content was measured at specified time points. Data represent the mean ± standard deviation of three independent experiments.

Series [3] in a line: DPPH radical scavenging assay. On the procedure:
A DPPH radical scavenging assay kit (Solarbio) was used to assess antioxidant activity, following the manufacturer's instructions. Briefly, 10 μL of each test compound at the indicated concentrations was mixed with 190 μL DPPH solution in a 96‐well plate. Control wells (10 μL compound + 190 μL ethanol) and blank wells (10 μL solvent + 190 μL ethanol) were included. The reaction mixtures were gently shaken and incubated for 30 min at room temperature in the dark. Absorbance was measured at 515 nm using a Synergy H1 Hybrid Reader.
A DPPH radical scavenging assay was conducted to evaluate the antioxidant activity of KT‐939 at various concentrations, with a maximum concentration of 10 mM in a 5‐fold dilution series. Data represent mean ± standard deviation of three independent experiments.

Series [4] has as its system NRF2/ARE signaling pathway. As to the kind of experiment: NRF2/ARE‐luciferase reporter assay in HEK293T cells. The note with it: 10 µM, 48 h, relative to DMSO. It counts as cell-based, human. On the procedure: The NRF2‐responsive firefly luciferase reporter plasmid (pGL4.27_ARE NRF2‐SPE) and Renilla luciferase control plasmid (pRL‐TK) were co‐transfected into HEK293T cells using Lipofectamine 2000. After 24 h, transfected cells were seeded into 96‐well plates and incubated overnight. Test compounds (10 μM) were added, and cells were incubated for an additional 48 h. Luciferase activities were measured using the Dual‐Lumi Luciferase Reporter Assay Kit (Beyotime Biotechnology), following the manufacturer's instructions.
FIGURE 6 KT‐939 activates the ARE/NRF2 signaling pathway. HEK293T cells transfected with an NRF2‐responsive firefly luciferase reporter were treated with 10 µM of KT‐939, hydroquinone (Hq), 377, or 4‐butylresorcinol for 48 h. Luminescence signals were normalized to renilla and expressed relative to DMSO control. *** p < 0.001 vs DMSO.
On the technique in general: In a reporter assay the amount or activity of a reporter protein is the signal.

Series [5] relates to LPS‐stimulated RAW264.7 cells. As to the kind of experiment: RT‐qPCR of inflammatory cytokines in LPS‐stimulated RAW264.7 cells. It counts as cell-based, mouse. The note with it: 3, 10 or 30 μM pretreatment 2 h, then 100 ng/mL LPS 16 h, vs LPS group. The procedure: RAW264.7 cells were treated with KT‐939 at concentrations of 3, 10, or 30 μM and incubated for 2 h. After pretreatment, cells were stimulated with 100 ng/mL LPS for an additional 16 h. Total RNA was extracted using the MiniBEST RNA Extraction Kit (Takara Bio) per the manufacturer's protocol. Reverse transcription and SYBR Green‐based qPCR were performed with ABScript II One Step RT‐qPCR Kit (Abclonal). RT‐PCR primer sequences were as follows: (Mouse) TNF‐α sense: 5‐[…]‐3, antisense: 5‐[…]‐3; (Mouse) IL‐6 sense: 5‐[…]‐3, antisense: 5‐[…]‐3; (Mouse) IL‐1α sense: 5‐[…]‐3, antisense: 5‐[…]‐3; (Mouse) GAPDH sense: 5‐[…]‐3, antisense: 5‐[…]‐3; Expression of target gene mRNA was normalized to GAPDH, and results were analyzed using GraphPad software.
RAW264.7 cells were pre‐treated with different concentrations of KT‐939, followed by the addition of 100 ng/mL LPS for 16 h. mRNA levels of TNF‐α, IL‐6, and IL‐1α were quantified by RT‐PCR and compared to the LPS‐induced group (*p < 0.05, **p < 0.01, ***p < 0.001).

Series [6] has as its system MNT‐1 cells. In words: Cell viability, MNT‐1. It counts as cell-based, human. The note with it: MNT‐1, 72 h, up to 50 μM. On the procedure: (§1) B16‐F10, MNT‐1, and HaCaT cells (5000 cells/well) were seeded into 96‐well plates and incubated overnight. Culture medium (50 μL) containing varying concentrations of KT‐939 was added to each well, and cells were incubated for 72 h. Cell viability was assessed using the Cell Viability Assay Kit (Vazyme Biotech), following the manufacturer's instructions. Luminescence was measured using a Synergy H1 Hybrid Reader. DMSO‐treated cells served as the control, and survival rates were calculated and analyzed with GraphPad software.
(§2) B16‐F10, MNT‐1, and HaCaT cells were incubated with different concentrations of KT‐939 for 72 h. Cell viability was assessed and normalized to the DMSO‐treated control group.

A further series deals with HaCaT cells. As to the kind of experiment: Cell viability, HaCaT. It counts as cell-based, human. As to conditions: 72 h, up to 50 μM. The procedure: as §1, §2

For `CC1(C(=O)Nc2nc(-c3ccc(O)cc3O)cs2)COC1` [KT‐939, N‐(4‐(2,4‐Dihydroxyphenyl) Thiazol‐2‐yl)‐3‐Methyloxetane‐3‐Carboxamide], the IC50 in the series with MNT‐1 cells [1] (Homo sapiens, 144 h, MNT‐1, 6 days, read-out: IC50 of melanin production) came out at 360 nM. In the series on MNT‐1 cells [1] (Homo sapiens, MNT-1, 144 h, 0.37 μM, 6 days, read-out: inhibition of melanin production), the inhibition at 0.37 µM was determined as 48.4%. The inhibition at 1.1 µM in the series with MNT‐1 cells [1] (Homo sapiens, MNT-1, 144 h, 1.1 μM, 6 days, read-out: inhibition of melanin production) came to 63.3%. In addition, the inhibition at 3.3 µM in the series on MNT‐1 cells [1] (Homo sapiens, MNT-1, 144 h, 3.3 μM, 6 days, read-out: inhibition of melanin production) turned out to be 83.9%. Moreover, the inhibition at 10 µM in the series with MNT‐1 cells [1] (Homo sapiens, MNT-1, 144 h, 10 μM, 6 days, read-out: inhibition of melanin production) was 86.7%; in the series on MNT‐1 cells [2] (day 3 after washout), 66.6%; with MNT‐1 cells [2] (day 5 after washout), 52.7%; in the series with MNT‐1 cells [2] (day 7 after washout) it was 21.3%; in the series on MNT‐1 cells [2] (day 9 after washout), 20%. Moreover, the “fold greater melanin inhibitory potency compared to Thiamidol” value in the series on MNT‐1 cells [1] (ratio of IC50, vs Thiamidol) was “approximately 3.6 fold”. In the series with MNT‐1 cells [2] (1 μM for 6 days, after seven days), the “melanin inhibition after washout” value is “returning to baseline”. Further, in the series with MNT‐1 cells [2] (10 μM for 6 days, after 11 days of drug withdrawal), the “melanin content after washout” value is “fully returned to normal levels”. The inhibition at 1 µM was 38% in the series with MNT‐1 cells [2] (day 3 after washout) and 28.3% in the series on MNT‐1 cells [2] (day 5 after washout). Further, the DPPH clearance rate in series [3] (0.4 mM) was 8.9%; in series [3] (2 mM) it was 20.2%; in series [3] (10 mM), 43.2%; in series [3] (as summed up in the discussion, concentration not given), “exceeding 40%”. In addition, the “NRF2 signaling pathway activation (luciferase reporter)” value in series [4] is reported as “significantly enhanced the NRF2 signaling pathway”. The “IL‐1α mRNA level” value in series [5] is “dose‐dependent decrease”. Besides, the “IL‐6 mRNA level” value in series [5] was “dose‐dependent decrease”. Besides, in series [5], the “TNF‐α mRNA level” value is “dose‐dependent decrease”. Besides, the “cytotoxicity (cell viability)” value with MNT‐1 cells [6] and with HaCaT cells was “no significant cytotoxicity” in each case.

In general, IC50 refers to the point on the concentration scale where inhibition reaches its midpoint. What is called inhibition is the change of the read-out against control, counted positive when it falls.
